US9523100B2, “Pesticidal compositions and related methods” (DOW AGROSCIENCES LLC, priority 2013, dated 2016)

How the values were obtained:
[1] = test system: Green Peach Aphid (GPA) (Myzus persicae) (MYZUPE); assay: Bioassay for Green Peach Aphid (GPA), foliar spray on cabbage seedlings; assay type: in vivo; conditions: 72 h, 200 ppm foliar spray on cabbage seedlings, graded after three days, Abbott corrected % control, read-out: GPA 200 ppm, % Control (or Mortality) rating
Outline: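 Foliar spray test: 200 ppm solutions (0.025% Tween 20 in water, 20% acetone/methanol) applied to both leaf sides of aphid-infested cabbage seedlings. After 3 days at about 25° C, live aphids per plant were counted; control corrected to solvent check via Abbott's formula.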

[2] = test system: Sweetpotato Whitefly-Crawler (WF) (Bemisia tabaci) (BEMITA); assay: Insecticidal test for Sweetpotato Whitefly-Crawler (WF) in foliar spray assay on cotton plants; assay type: in vivo; conditions: 216 h, 200 ppm foliar spray on cotton plants, graded after 9 days, Abbott corrected % control, read-out: WF 200 ppm, % Control (or Mortality) rating
Outline: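 Whitefly nymph control on egg-infested cotton (eggs laid 4–5 days pre-treatment), foliar spray at 200 ppm test compound. Live late-stage nymphs counted microscopically 9 days later at ~25 °C; control calculated by Abbott's formula relative to acetone-diluent-sprayed plants.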

Compound	mortality at 200 ppm [1] [%]	mortality at 200 ppm [2] [%]
CCN(C(=O)C1CN(C(=O)C(F)(F)F)C1)c1cn(-c2cccnc2)nc1Cl [FA14, N-(3-Chloro-1-(pyridin-3-yl)-1H-pyrazol-4-yl)-N-ethyl-1-(2,2,2-trifluoroacetyl)azetidine-3-carboxamide]	80 to 100	80 to 100
CCN(C(=O)C1CN(C(=O)CCC(F)(F)F)C1)c1cn(-c2cccnc2)nc1Cl [FA15, N-(3-Chloro-1-(pyridin-3-yl)-1H-pyrazol-4-yl)-N-ethyl-1-(4,4,4-trifluorobutanoyl)azetidine-3-carboxamide]	80 to 100	80 to 100
CCN(C(=O)C1CN(C(=O)CCC#N)C1)c1cn(-c2cccnc2)nc1Cl [FA16, N-(3-Chloro-1-(pyridin-3-yl)-1H-pyrazol-4-yl)-1-(3-cyanopropanoyl)-N-ethylazetidine-3-carboxamide]	0 to 80	0 to 80
CCN(C(=O)C1CN(C(=O)c2cccnc2)C1)c1cn(-c2cccnc2)nc1Cl [FA17, N-(3-Chloro-1-(pyridin-3-yl)-1H-pyrazol-4-yl)-N-ethyl-1-nicotinoyl azetidine-3-carboxamide]	0 to 80	0 to 80
CCN(C(=O)C1CCCN(C(=O)OC(C)(C)C)C1)c1cn(-c2cccnc2)nc1Cl (stereo not drawn) [FA18, tert-Butyl 3-((3-chloro-1-(pyridin-3-yl)-1H-pyrazol-4-yl)(ethyl)carbamoyl) piperidine-1-carboxylate]	80 to 100	80 to 100
CCN(C(=O)CC/C(C)=N/OCCCC(F)(F)F)c1cn(-c2cccnc2)nc1Cl [FA19, (E/Z)-N-(3-Chloro-1-(pyridin-3-yl)-1H-pyrazol-4-yl)-N-ethyl-4-((4,4,4-trifluorobutoxy)imino) pentanamide]	0 to 80	80 to 100
CCN(C(=O)CC/C(C)=N/OCCCCF)c1cn(-c2cccnc2)nc1Cl [FA20, (E/Z)-N-(3-chloro-1-(pyridin-3-yl)-1H-pyrazol-4-yl)-N-ethyl-4-((4-fluorobutoxy)imino)pentanamide]	80 to 100	80 to 100
CCN(C(=O)CC/C(C)=N/OCc1ccc(C(F)(F)F)nc1)c1cn(-c2cccnc2)nc1Cl [FA22, (E/Z)-N-(3-Chloro-1-(pyridin-3-yl)-1H-pyrazol-4-yl)-N-ethyl-4-(((6-(trifluoromethyl)pyridin-3-yl)methoxy)imino)pentanamide]	0 to 80	80 to 100
CCN(C(=O)CC/C(=N\OCCCC(F)(F)F)c1cccs1)c1cn(-c2cccnc2)nc1Cl [FA26, (E)-N-(3-Chloro-1-(pyridin-3-yl)-1H-pyrazol-4-yl)-N-ethyl-4-(thiophen-2-yl)-4-((4,4,4-trifluorobutoxy)imino)butanamide]	0 to 80	80 to 100
CCN(C(=O)CC/C(=N/OCCCC(F)(F)F)c1cccs1)c1cn(-c2cccnc2)nc1Cl [FA27, (Z)-N-(3-Chloro-1-(pyridin-3-yl)-1H-pyrazol-4-yl)-N-ethyl-4-(thiophen-2-yl)-4-((4,4,4-trifluorobutoxy)imino)butanamide]	0 to 80	0 to 80
CCN(C(=O)CC/C(=N\OCCCCC(F)(F)F)c1cccs1)c1cn(-c2cccnc2)nc1Cl [FA28, (E)-N-(3-Chloro-1-(pyridin-3-yl)-1H-pyrazol-4-yl)-N-ethyl-4-(thiophen-2-yl)-4-(((5,5,5-trifluoropentyl)oxy)imino)butanamide]	0 to 80	0 to 80
CCN(C(=O)CC/C(=N/OCCCCC(F)(F)F)c1cccs1)c1cn(-c2cccnc2)nc1Cl [FA29, (Z)-N-(3-Chloro-1-(pyridin-3-yl)-1H-pyrazol-4-yl)-N-ethyl-4-(thiophen-2-yl)-4-(((5,5,5-trifluoropentyl)oxy)imino)butanamide]	0 to 80	80 to 100
CCN(C(=O)CC/C(=N\OCC1CC(F)(F)C1)c1cccs1)c1cn(-c2cccnc2)nc1Cl [FA30, (E)-N-(3-Chloro-1-(pyridin-3-yl)-1H-pyrazol-4-yl)-4-(((3,3-difluorocyclobutyl)methoxy)imino)-N-ethyl-4-(thiophen-2-yl)butanamide]	< 0	0 to 80
CCN(C(=O)CC/C(=N/OCC1CC(F)(F)C1)c1cccs1)c1cn(-c2cccnc2)nc1Cl [FA31, (Z)-N-(3-Chloro-1-(pyridin-3-yl)-1H-pyrazol-4-yl)-4-(((3,3-difluorocyclobutyl)methoxy)imino)-N-ethyl-4-(thiophen-2-yl)butanamide]	< 0	0 to 80
CCN(C(=O)C1CCCCN1C(C)=O)c1cn(-c2cccnc2)nc1Cl (stereo not drawn) [FA32, 1-Acetyl-N-(3-chloro-1-(pyridin-3-yl)-1H-pyrazol-4-yl)-N-ethylpiperidine-2-carboxamide]	0 to 80	0 to 80
CCN(C(=O)CCCN1CCCC1=O)c1cn(-c2cccnc2)nc1Cl [FA33, N-(3-Chloro-1-(pyridin-3-yl)-1H-pyrazol-4-yl)-N-ethyl-4-(2-oxopyrrolidin-1-yl)butanamide]	80 to 100	80 to 100
CCN(C(=O)CCCN1CCOC1=O)c1cn(-c2cccnc2)nc1Cl [FA34, N-(3-Chloro-1-(pyridin-3-yl)-1H-pyrazol-4-yl)-N-ethyl-4-(2-oxooxazolidin-3-yl)butanamide]	80 to 100	80 to 100
CCN(C(=O)CC/C(=N/OCC(F)(F)F)c1cccs1)c1cn(-c2cccnc2)nc1Cl [FA35, (E/Z)-N-(3-Chloro-1-(pyridin-3-yl)-1H-pyrazol-4-yl)-N-ethyl-4-(thiophen-2-yl)-4-((2,2,2-trifluoroethoxy)imino)butanamide]	0 to 80	80 to 100
CCN(C(=O)CC/C(=N\OCc1ccc(C(F)(F)F)nc1)c1cccs1)c1cn(-c2cccnc2)nc1Cl [FA36, (E)-N-(3-Chloro-1-(pyridin-3-yl)-1H-pyrazol-4-yl)-N-ethyl-4-(thiophen-2-yl)-4-(((6-(trifluoromethyl)pyridin-3-yl)methoxy)imino)butanamide]	0 to 80	0 to 80
CCN(C(=O)CC/C(=N/OCc1ccc(C(F)(F)F)nc1)c1cccs1)c1cn(-c2cccnc2)nc1Cl [FA37, (Z)-N-(3-Chloro-1-(pyridin-3-yl)-1H-pyrazol-4-yl)-N-ethyl-4-(thiophen-2-yl)-4-(((6-(trifluoromethyl)pyridin-3-yl)methoxy)imino)butanamide]	0 to 80	80 to 100
CCN(C(=O)CC/C(=N\OCC1CC1(F)F)c1cccs1)c1cn(-c2cccnc2)nc1Cl (stereo not drawn) [FA38, (E)-N-(3-Chloro-1-(pyridin-3-yl)-1H-pyrazol-4-yl)-4-(((2,2-difluorocyclopropyl)methoxy)imino)-N-ethyl-4-(thiophen-2-yl)butanamide]	0 to 80	0 to 80
CCN(C(=O)CC/C(=N/OCC1CC1(F)F)c1cccs1)c1cn(-c2cccnc2)nc1Cl (stereo not drawn) [FA39, (Z)-N-(3-Chloro-1-(pyridin-3-yl)-1H-pyrazol-4-yl)-4-(((2,2-difluorocyclopropyl)methoxy)imino)-N-ethyl-4-(thiophen-2-yl)butanamide]	0 to 80	0 to 80
CCN(C(=O)CC/C(C)=N/OCc1ccc(OC(F)(F)F)cc1)c1cn(-c2cccnc2)nc1Cl [FA40, (E/Z)-N-(3-Chloro-1-(pyridin-3-yl)-1H-pyrazol-4-yl)-N-ethyl-4-(((4-(trifluoromethoxy)benzyl)oxy)imino)pentanamide]	0 to 80	80 to 100
CCN(C(=O)C1CCCN(C(=O)C(F)(F)F)C1)c1cn(-c2cccnc2)nc1Cl (stereo not drawn) [FA41, N-(3-Chloro-1-(pyridin-3-yl)-1H-pyrazol-4-yl)-N-ethyl-1-(2,2,2-trifluoroacetyl)piperidine-3-carboxamide]	80 to 100	0 to 80
CCN(C(=O)C1CCCN(C(=O)CC(F)(F)F)C1)c1cn(-c2cccnc2)nc1Cl (stereo not drawn) [FA42, N-(3-Chloro-1-(pyridin-3-yl)-1H-pyrazol-4-yl)-N-ethyl-1-(3,3,3-trifluoropropanoyl)piperidine-3-carboxamide]	80 to 100	0 to 80
CCN(C(=O)C1CCCN(C(=O)CCC(F)(F)F)C1)c1cn(-c2cccnc2)nc1Cl (stereo not drawn) [FA43, N-(3-Chloro-1-(pyridin-3-yl)-1H-pyrazol-4-yl)-N-ethyl-1-(4,4,4-trifluorobutanoyl)piperidine-3-carboxamide]	80 to 100	80 to 100
CCN(C(=O)C1CCCN(C(=O)CCC#N)C1)c1cn(-c2cccnc2)nc1Cl (stereo not drawn) [FA44, N-(3-chloro-1-(pyridin-3-yl)-1H-pyrazol-4-yl)-1-(3-cyanopropanoyl)-N-ethylpiperidine-3-carboxamide]	80 to 100	80 to 100
CCN(C(=O)C1CCCN(C(C)=O)C1)c1cn(-c2cccnc2)nc1Cl (stereo not drawn) [FA45, 1-Acetyl-N-(3-chloro-1-(pyridin-3-yl)-1H-pyrazol-4-yl)-N-ethylpiperidine-3-carboxamide]	80 to 100	0 to 80
CCN(C(=O)CC/C(C)=N\O)c1cn(-c2cccnc2)nc1Cl [FA46, (Z)-N-(3-Chloro-1-(pyridin-3-yl)-1H-pyrazol-4-yl)-N-ethyl-4-(hydroxyimino)pentanamide]	0 to 80	80 to 100
CCN(C(=O)CC/C(C)=N\OCCC1CC1(F)F)c1cn(-c2cccnc2)nc1Cl (stereo not drawn) [FA49, (Z)-N-(3-Chloro-1-(pyridin-3-yl)-1H-pyrazol-4-yl)-4-((2-(2,2-difluorocyclopropyl)ethoxy)imino)-N-ethylpentanamide]	0 to 80	80 to 100
